Experiments:
TLR6 = target: T1, TLR6 (Homo sapiens, UniProt Q9Y2C9); test: TLR6 ligand induced TNF-α secretion (ELISA); type: cell-based; settings: cells treated with TLR6 ligand 75 ng/ml
T1 construct: endogenous in cells; host or cells: THP-1 monocytes and/or PBMCs
T1 sequence (Q9Y2C9 32-796): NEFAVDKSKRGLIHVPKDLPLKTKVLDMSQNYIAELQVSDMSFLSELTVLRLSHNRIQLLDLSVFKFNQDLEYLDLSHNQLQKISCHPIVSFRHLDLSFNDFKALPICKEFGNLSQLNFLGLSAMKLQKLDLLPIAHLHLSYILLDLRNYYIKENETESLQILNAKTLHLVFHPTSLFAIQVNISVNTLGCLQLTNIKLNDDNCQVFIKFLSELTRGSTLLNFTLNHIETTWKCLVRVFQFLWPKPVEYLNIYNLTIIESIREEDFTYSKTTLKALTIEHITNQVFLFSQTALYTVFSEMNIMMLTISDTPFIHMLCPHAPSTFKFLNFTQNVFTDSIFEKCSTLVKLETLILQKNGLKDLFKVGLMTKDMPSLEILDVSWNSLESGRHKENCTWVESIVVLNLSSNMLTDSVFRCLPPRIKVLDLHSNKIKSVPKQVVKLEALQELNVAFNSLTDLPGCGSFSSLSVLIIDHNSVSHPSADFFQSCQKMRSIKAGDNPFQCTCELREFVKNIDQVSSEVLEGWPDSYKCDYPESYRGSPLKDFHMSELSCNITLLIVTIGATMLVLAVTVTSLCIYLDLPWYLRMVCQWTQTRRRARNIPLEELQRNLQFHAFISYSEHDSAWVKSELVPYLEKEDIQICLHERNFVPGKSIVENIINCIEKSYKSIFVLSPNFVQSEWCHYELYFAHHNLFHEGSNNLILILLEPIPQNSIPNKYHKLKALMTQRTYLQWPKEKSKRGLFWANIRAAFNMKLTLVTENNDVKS
Description: The present invention has checked the effect of various TLR ligands on THP-1 monocytes, PBMCs and their ability to activate and release TNF-α. For this purpose about 9 TLR ligands were used. These ligands were obtained from Apotech Cat; APO-54N-018-K100 and assayed for TNF-α release in culture supernatants.
THP-1 and PBMCs (2×10^5 cells/well) were plated in 96-well plate. The cells were pretreated with RSCL-0409 in DMSO 1 hr prior to TLR ligand treatment. Following 1 hr pre-treatment, the cells were treated with TLR ligands [TLR2, TLR5 and TLR6-75 ng/ml each, TLR3-75 μg/ml, TLR4-750 ng/ml, TLR7, TLR8 and TLR9-7.5 μg/ml) for 24 hrs. The culture supernatant were collected after the stipulated time and assayed for TNF-α release using a Duoset Enzyme-Linked ImmunoSorbent Assay (ELISA) detection Kit (R&D systems, MN 55413, USA; Cat: DY-210 E). Simultaneously supernatants were collected from cells treated with ligands without pre-treatment with RSCL-0409 and only RSCL-0409 without ligand treatment.

TNF-α = test: LPS induced TNF-α secretion in THP-1 monocytes, dose dependence (ELISA); type: cell-based, human; settings: THP-1, LPS 250 ng/ml, 100, 50, 10 and 1 μM, 24 hr
Description: To confirm whether the inhibitory effect of RSCL-0409 is dose-dependent, the present invention has studied the ability of RSCL-0409 to inhibit TNF-α secretion from LPS (250 ng/ml) induced THP-1 monocytes (FIG. 2a).
THP-1, 2×10^5 cells/well was plated in 96-well plate. The cells were pretreated with RSCL-0409 at various concentrations (100 μM, 50 μM, 10 μM and 1 μM) 1 hr prior to LPS stimulation. As a control group, cells were treated with LPS alone and cells treated with RSCL-0409 alone were used. TNF-α secretion was estimated in the culture supernatants following 24 hr LPS stimulation using Duoset ELISA detection Kit (R&D systems, MN, USA). *P<0.05, ***P<0.001 values are comparisons for LPS treated vs. RSCL-0409 treated, NS indicates not significant.

TNF-α mRNA = TNF-α mRNA expression in LPS stimulated THP-1 cells (real-time PCR); type: cell-based, human; settings: THP-1, LPS 250 ng/ml 1 hr
Description: To determine whether the suppressive effect of RSCL-0409 on the cytokine production occurs at mRNA expression level, quantitative real-time PCR was used to examine TNF-α and IL-6 mRNA expression in THP-1 cells stimulated with LPS. THP-1 cells (3×10^6 cells/well) were stimulated with 250 ng/ml LPS in the presence or absence of RSCL-0409 at indicated concentrations for the 1 hr. Total RNA was isolated from these cells and cDNA was synthesized. LPS treated cells acted as positive control. All quantitative real-time PCR (TaqMan™) primers and probes were obtained from Applied Biosystems (ABI), Weiterstadt, Germany. For detection of TNF-α, pre-developed assay reagents (Universal master mix as obtained from Applied Biosystems included all reagents including Taq-polymerase apart from specific primers and probes) were used. The PCR was performed utilizing 1 μl cDNA per reaction in triplicates of 25 μl volume on an ABI 7500 Realtime PCR machine using a 2-step PCR protocol.
Quantization of mRNA was performed using the comparative threshold cycle method and analysed using standard software and expressed in fold change. The fold change of TNF-α (FIG. 5a) and IL-6 (FIG. 5b) mRNA in treated cells over control was obtained after correction for the amount of β-actin. […] The expression levels of both TNF and IL-6 decreased following 1 hr pretreatment with RSCL-0409 in the presence of LPS. […]

NF-κB = NF-κB SEAP reporter assay in THP-1 CD14 Blue cells; type: cell-based, human; settings: LPS 250 ng/ml, 24 hr
Description: THP-1 CD14 Blue cells (Invivogen, San Diego, Calif., USA) transfected with a SEAP reporter construct in which the reporter expression was regulated by the NF-κB promoter were stimulated with LPS (250 ng/ml) with or without RSCL-0409 for 24 hr. […] The reporter activity was determined using Quanti Blue kit (Invivogen). The data (FIG. 8) is plotted as the relative change of reporter activity. NS; not significant, ** P value <0.01, *** P value <0.001 are statistics for Cells Vs RSCL-0409 treated and LPS treated vs. RSCL-0409 followed by LPS treatment respectively. These observations further confirm that the RSCL-0409 inhibits LPS induced TLR mediated activation of NF-κB transcription factor.

effect on TNF-α secretion (TLR6): no effect observed
Structure (SMILES): COc1ccc(OC2OC3COC(c4ccccc4)OC3C(OC3OC(COC(=O)CCC(C)=O)C(OC(=O)CCl)C(OC(C)=O)C3OC(C)=O)C2NC(=O)C(Cl)(Cl)Cl)cc1 [RSCL-0409, p-Methoxy phenyl-O-(2,3-di-O-acetyl-4-O-chloroacetyl-6-O-levulinoyl-β-D-glucopyranosyl)-(1-3)-2-deoxy-2-trichloroacetamido-4,6-O-benzylidene-α-D-glucopyranoside]
LPS induced TNF-α secretion (TNF-α): inhibited by RSCL-0409 in a concentration dependent manner | TNF-α mRNA expression (TNF-α mRNA): down regulated TNF-α to almost control levels | SEAP reporter activity (NF-κB promoter) (NF-κB): blocked in a dose dependent manner

From US20090215710A1, “CARBOHYDRATE BASED TOLL-LIKE RECEPTOR (TLR) ANTAGONISTS” (RELIANCE LIFE SCIENCES PVT. LTD., priority 2007, published 2009)
